Assay [1] concerns CD4^+ T cells from B6 mice. In words: In vitro FOXP3+ cell expansion in B6 CD4+ T cells. It counts as cell-based, mouse. The following applies: 3 days. How it is done: F5111 IC LN35-loaded microparticles or free F5111 IC LN35 (at a dose equivalent to the particle loading dose) were incubated with CD4+ cells from B6 mice for 3 days, and cells were analyzed for FOXP3 expression via flow cytometry.
To determine whether F5111 IC-encapsulated MPs could induce in vitro TReg cell expansion, CD4^+ T cells were isolated from the spleens of B6 mice and incubated with unconjugated F5111 IC or F5111 IC-loaded PLGA MPs for 3 days. Cells were then stained for CD4, CD25, and FOXP3, and analyzed using flow cytometry.

The subject of assay [2] is CD4+ T cells from C57BL/6 mice. Nature of the assay: pSTAT5 expression in C57BL/6 CD4+ T cells. It counts as cell-based, mouse. How it is done:
FIG. 22 is a graph showing the results of B6 CD4+ cells stimulation with titrated encapsulated particle doses or equivalent free doses of F5111 for different lengths of time, and the analysis of pSTAT5 expression using flow cytometry. A dose titration for free and MP-loaded F5111 IC LN35 was observed, with maximum pSTAT5 expression achieved after 1 hour of stimulation.
To evaluate the functionality of F5111 IC-loaded particles, mouse CD4+ T cells were stimulated with F5111 IC-loaded microparticles to identify an optimal stimulation time for maximum pSTAT5 expression, and pSTAT5 expression was compared to that of cells stimulated with free F5111 IC. CD4+ T cells were isolated from C57BL/6 mice and incubated with various doses of F5111 IC-loaded microparticles or equivalent doses of free F5111 IC for 20, 40, 60, or 120 minutes.

For assay [3], the system named is human PBMCs (TReg cells, CD8^+ and CD4^+ effector T cells). In words: Human PBMC STAT5 phosphorylation in T cell subsets. It counts as cell-based. The note with it: human PBMCs from healthy donor whole blood. As to the method: Human PBMC STAT5 phosphorylation studies. Human PBMCs were isolated from whole blood of healthy donors via Ficoll gradient following manufacturer protocols and then incubated with ACK lysis buffer for removal of red blood cells. Approximately 1×10^6 human PBMCs were plated in each well of a 96-well plate and re-suspended in RPMI complete medium containing serial dilutions of the indicated treatments. Cytokine/antibody complexes were formed by incubating a 1:1 molar ratio of F5111 antibody to hIL-2 for 1 hour at 37° C. Cells were stimulated for 20 minutes at 37° C. and immediately fixed by addition of 1X Fix/Perm Buffer (BD Biosciences) and 50 minute incubation at 4° C. Permeabilization of cells was achieved by resuspension in Perm Buffer III (BD Biosciences) overnight at −20° C. […] Cells were then washed twice in FACS buffer and MFI was determined on a CytoFLEX flow cytometer (Beckman-Coulter). Dose-response curves were fitted to a logistic model and half-maximal effective concentrations (EC50s) were calculated using GraphPad Prism data analysis software after subtraction of the mean fluorescence intensity (MFI) of unstimulated cells and normalization to the maximum signal intensity. […]

Another assay concerns the target T1, IL-2Rβ (Homo sapiens, UniProt P14784).
T1 construct: the extracellular domains of the hIL-2Rα (residues 1-214) and hIL-2Rβ (residues 1-214) receptor subunits; hexahistidine (C); made in house; host or cells: HEK 293F
T1 sequence (P14784 27-240): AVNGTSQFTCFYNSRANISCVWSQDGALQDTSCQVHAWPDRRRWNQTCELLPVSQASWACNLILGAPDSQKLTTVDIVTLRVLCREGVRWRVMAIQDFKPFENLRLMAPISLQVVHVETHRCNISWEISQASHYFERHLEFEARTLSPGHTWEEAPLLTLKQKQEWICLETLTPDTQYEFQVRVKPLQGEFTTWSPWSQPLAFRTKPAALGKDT
Nature of the assay: Bio-layer interferometry binding to immobilized IL-2Rβ. How it is done: (§1) Bio-layer interferometry binding studies. […] Less than 5 signal units (nm) of receptor was immobilized to minimize mass transfer effects. […] An irrelevant protein was included in a reference well to subtract non-specific binding. Surface regeneration for all interactions was conducted using a 15 second exposure to 0.1 M glycine pH 3.0. Experiments were carried out in PBSA (phosphate-buffered saline, pH 7.3 plus 0.1% bovine serum albumin (BSA, Thermo Fisher Scientific)) at 25° C. Data was visualized and processed using the Octet® Data Analysis software version 7.1 (Molecular Devices). Equilibrium titration curve fitting and KD value determination was implemented using GraphPad Prism, assuming all binding interactions to be first order. Experiments were reproduced two times with similar results.
(§2) The binding affinities were also evaluated using bio-layer interferometry on an OCTET® instrument with biotinylated hIL-2 immobilized on a streptavidin-coated tip (FIG. 6B). […] Bio-layer interferometry based binding studies were also conducted to assess the interaction between F5111 IC LN15 and the IL-2Rα and IL-2Rβ receptor chains, to ensure that the single-chain antibody/cytokine fusion was biased toward engagement of IL-2Rα (which is highly expressed on TReg cells but not effector cells) compared with IL-2Rβ.
(§3) Additionally, binding interactions between F5111 IC LN25 and LN35 with the human IL-2Rα (hIL-2Rα) and hIL-2Rβ subunits were measured using bio-layer interferometry on an Octet® instrument by immobilizing biotinylated hIL-2Rα and IL-2Rβ on streptavidin-coated tips.
For orientation: In BLI a coated tip is dipped into the sample, and binding shifts an interference pattern.

For another assay, the system named is IL-2Rα^+ YT-1 cells. Nature of the assay: YT-1 cell STAT5 phosphorylation, IL-2Rα+ cells. It is filed as cell-based, human. The following applies: for selective activation of IL-2Rα^+ TReg-like cells over IL-2Rα^− TEff-like cells (bias): YT-1 cells with or without IL-2Rα; for STAT5 activation on IL-2Rα^+ YT-1 cells: flow cytometry, 20 minutes stimulation. How it is done: (§4) YT-1 cell STAT5 phosphorylation studies. Approximately 2×10^5 IL-2Rα^− YT-1 or IL-2Rα^+ YT-1 cells were plated in each well of a 96-well plate and re-suspended in RPMI complete medium containing serial dilutions of the indicated treatments. Cytokine/antibody complexes were formed by incubating a 1:1 molar ratio of F5111 antibody to hIL-2 for 1 hour at 37° C. Cells were stimulated for 20 minutes at 37° C. and immediately fixed by addition of formaldehyde to 1.5% and 10 minute incubation at room temperature. Permeabilization of cells was achieved by resuspension in ice-cold 100% methanol for 30 minutes at 4° C. Fixed and permeabilized cells were washed twice with FACS buffer (phosphate-buffered saline [PBS] pH 7.2 containing 0.1% BSA [Thermo Fisher Scientific]) and incubated with Alexa Fluor® 647-conjugated anti-STAT5 pY694 (BD Biosciences) diluted in FACS buffer for 2 hours at room temperature. Cells were then washed twice in FACS buffer and mean fluorescence intensity (MFI) was determined on a CytoFLEX flow cytometer (Beckman-Coulter). Dose-response curves were fitted to a logistic model and half-maximal effective concentrations (EC50s) were calculated using GraphPad Prism data analysis software after subtraction of the mean fluorescence intensity (MFI) of unstimulated cells and normalization to the maximum signal intensity.
(§5) A cell signaling assay was performed on YT-1 human NK cells with or without IL-2Rα.
(In flow cytometry, cells or beads pass a laser one at a time.)

For another assay, the system named is IL-2Rα^− YT-1 cells. In words: YT-1 cell STAT5 phosphorylation, IL-2Rα− cells. The following applies: flow cytometry, 20 minutes stimulation. It is filed as cell-based, human. As to the method:
as §4, §5

Another assay concerns the target T2, immobilized hIL-2 (Homo sapiens, UniProt P60568).
T2 construct: The full hIL-2 cytokine (residues 1-133) and the extracellular domains; hexahistidine (C); made in house; host or cells: HEK 293F
In words: Bio-layer interferometry binding to immobilized hIL-2. The following applies: biotinylated hIL-2 immobilized. How it is done:
as §1, §2

A further assay has as its target T3, human IL-2 (hIL-2) (Homo sapiens, UniProt P60568).
T3 construct: hIL-2 (residues 1-133) or mIL-2 (residues 1-149) were cloned into the pCT302 vector; made in house; host or cells: yeast (surface display)
Nature of the assay: Yeast surface binding study, yeast-displayed hIL-2, flow cytometry. The following applies: yeast surface-displayed hIL-2. How it is done: Yeast surface binding studies. For antibody binding studies on yeast, hIL-2 (residues 1-133) or mIL-2 (residues 1-149) were cloned into the pCT302 vector and presented on the surface of yeast, as described previously (Boder et al., Nat. Biotechnol., 15(6): 553-557 (1997)). […] Cells were then washed and stained with a 1:200 dilution of Alexa647-conjugated streptavidin (Thermo) in PBSA for 15 minutes at 4° C. After a final wash, cells were analyzed for antibody binding using a CytoFLEX flow cytometer (Beckman Coulter). Background-subtracted and normalized binding curves were fitted to a first-order binding model and equilibrium dissociation constant (KD) values were determined using GraphPad Prism. Studies were performed three times with similar results.
A rapid small-scale HEK 293F cell transfection assay was developed to optimize immunocytokine expression. Cells were transfected in 6-well plates with predefined ratios of heavy chain (HC) and IL-2-fused light chain (LC) plasmid DNA. After a 3-day incubation, secreted protein was captured from the supernatant with protein G resin, eluted with 0.1 M glycine pH 2.0, and analyzed via SDS-PAGE. […]
(§6) The binding affinities were also evaluated using bio-layer interferometry on an OCTET® instrument with biotinylated hIL-2 immobilized on a streptavidin-coated tip (FIG. 6B). […]

A further assay addresses T4, IL-2Rα (Homo sapiens, UniProt P01589).
T4 construct: the extracellular domains of the hIL-2Rα (residues 1-214) and hIL-2Rβ (residues 1-214) receptor subunits; hexahistidine (C); made in house; host or cells: HEK 293F
T4 sequence (P01589 22-235): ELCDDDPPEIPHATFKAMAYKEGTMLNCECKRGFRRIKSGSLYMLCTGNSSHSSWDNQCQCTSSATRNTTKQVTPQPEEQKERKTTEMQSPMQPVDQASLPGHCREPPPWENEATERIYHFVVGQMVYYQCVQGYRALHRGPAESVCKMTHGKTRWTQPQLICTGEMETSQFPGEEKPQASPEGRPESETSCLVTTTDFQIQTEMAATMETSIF
In words: Bio-layer interferometry binding to immobilized IL-2Rα. As to the method: as §1, §6, §3

T3 sequence (P60568 21-153): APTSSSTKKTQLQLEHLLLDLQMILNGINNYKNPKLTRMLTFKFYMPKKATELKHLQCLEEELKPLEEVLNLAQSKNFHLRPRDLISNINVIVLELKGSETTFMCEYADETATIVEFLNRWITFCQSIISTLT
T2 sequence (P60568 21-153): as above

As for “F5111 IC LN35: immunocytokine: hIL-2 fused to N-terminus of F5111 antibody light chain by 35-amino acid (Gly4Ser)7 linker”, in [1], the “expansion of FOXP3+ cells compared to untreated cells” value was “expanded FOXP3+ cells”. For the same substance, the “stimulation time of maximum pSTAT5 activation” value in [2] was found to be 60 minutes. Also, the “activation (pSTAT5) of CD4^+ T cells” value in [2] (various doses, 20, 40, 60, or 120 minutes) is “dose-dependent manner”. In addition, the “STAT5 activation of TReg cells compared to CD8^+ and CD4^+ effector T cells” value in [3] is reported as “significantly more potent activation”. The “binding to IL-2Rβ compared to free IL-2” value with IL-2Rβ was “significant reduction in the binding affinity”. In the assay with IL-2Rα^+ YT-1 cells, the “selective activation of IL-2Rα^+ TReg-like cells over IL-2Rα^− TEff-like cells (bias)” value was “greater bias than F5111 IC LN15 and the hIL-2/F5111 complex”; the “STAT5 activation on IL-2Rα^+ YT-1 cells” value was “sub-nanomolar concentrations”. Moreover, in the assay on IL-2Rα^− YT-1 cells, the “STAT5 activation on IL-2Rα^− YT-1 cells” value was “immeasurable”.

On to “F5111 IC LN25: immunocytokine: hIL-2 fused to N-terminus of F5111 antibody light chain by 25-amino acid (Gly4Ser)5 linker”, for which, in the assay with IL-2Rβ, the “binding to IL-2Rβ compared to free IL-2” value is on record as “significant reduction in the binding affinity”. Besides, in the assay with IL-2Rα^+ YT-1 cells, the “selective activation of IL-2Rα^+ TReg-like cells over IL-2Rα^− TEff-like cells (bias)” value was “greater bias than F5111 IC LN15 and the hIL-2/F5111 complex”; the “STAT5 activation on IL-2Rα^+ YT-1 cells” value is “sub-nanomolar concentrations”. Moreover, the “STAT5 activation on IL-2Rα^− YT-1 cells” value in the assay on IL-2Rα^− YT-1 cells is “immeasurable”.

As for “F5111 IC LN15: immunocytokine: hIL-2 fused to N-terminus of F5111 antibody light chain by 15-amino acid (Gly4Ser)3 linker”, the “binding affinity for hIL-2 relative to F5111 Ab” value in the assay with immobilized hIL-2 and in the assay with human IL-2 (hIL-2) was “significant reduction in binding affinity” in each case. The “binding to IL-2Rα compared to free IL-2” value with IL-2Rα is on record as “equal potency to the free IL-2 cytokine”. In the assay with IL-2Rβ, the “binding to IL-2Rβ compared to free IL-2” value is “significantly impaired binding”. In addition, the “STAT5 activation on IL-2Rα^+ YT-1 cells” value in the assay with IL-2Rα^+ YT-1 cells is “only mildly impaired”. Moreover, the “STAT5 activation on IL-2Rα^− YT-1 cells” value in the assay on IL-2Rα^− YT-1 cells was “dramatically reduced”.

Values taken from patent US12151000B2, “Tolerogenic artificial antigen-presenting cells” (THE JOHNS HOPKINS UNIVERSITY, priority 2019, dated 2024).
